From patent US20230172873A1, “Uses and Formulations of Cannabinoids” (priority 2020, published 2023)
Read-outs that look alike come from different tables or passages of the source.

Assays:
[1] = log P (n-octanol/water partition coefficient); type: physicochemical; details: active ingredient of Example 9
Method: In fact, cannabinoids are highly lipophilic molecules (log P 6-7) with very low water solubility (2-10 µg / ml). The log P is the decimal logarithm of the n-octanol/water partition coefficient. The partition coefficient can be determined experimentally. Values typically refer to room temperature (25° C.). The partition coefficient can also be roughly calculated from the molecular structure.

[2] = Systemic exposure after i.p. and oral application of CBD in mice; type: in vivo; details: 20 mg/kg; assuming dose-proportional plasma concentrations
Method: A comparative investigation for systemic exposure after i.p. and oral application of CBD in mice and rats has shown that 120 mg/kg as a single dose leads to a maximum plasma concentration of 14,000 ng/ml in mice (S. Deiana et al. (2012). Plasma and brain pharmacokinetic profile of cannabidiol (CBD), cannabidivarine (CBDV), Delta(9)-tetrahydrocannabivarin (THCV) and cannabigerol (CBG) in rats and mice following oral and intraperitoneal administration and CBD action on obsessive-compulsive behaviour. Psychopharmacology (Berl) 219(3): 859-73).

IL-6 secretion [3] = details: conversion of the effective concentration
[4] = mice; 120 mg/kg single dose (Deiana et al. 2012); cited from earlier work
IL-6 secretion [5] = details: cellular models, majority of cases (Chen et al. 2016); cited from earlier work
[6] = test system: LPS-induced acute lung injury; details: cited from earlier work
[7] = test system: LPS-induced acute lung injury; details: mice, 20 mg/kg, cited from earlier work
human mononuclear cells = details: nanomolar or micromolar concentrations; cited from earlier work
human neutrophils = details: McHugh et al. 2008; cited from earlier work
CD83 = details: dendritic cells derived from individuals with HIV infection; cited from earlier work
microglial cells = details: 1-16 µmol/l (Wu et al. 2012); cited from earlier work
[8] = test system: chemically induced acute hepatitis; details: mice, cited from earlier work
[9] = test system: activated memory T cell line; details: 1-5 µmol/l (Kozela et al. 2013), cited from earlier work
[10] = test system: ischemia-reperfusion-induced kidney injury; details: mice, cited from earlier work
inflammatory processes = details: cited from earlier work
NK, NKT, T and B cells = details: healthy rats, cited from earlier work
IL-6 receptor = target: T1, IL-6 receptor (Homo sapiens, UniProt P08887); details: patients with rheumatoid arthritis and systemic juvenile idiopathic arthritis; cited from earlier work
T1 sequence (P08887 20-468): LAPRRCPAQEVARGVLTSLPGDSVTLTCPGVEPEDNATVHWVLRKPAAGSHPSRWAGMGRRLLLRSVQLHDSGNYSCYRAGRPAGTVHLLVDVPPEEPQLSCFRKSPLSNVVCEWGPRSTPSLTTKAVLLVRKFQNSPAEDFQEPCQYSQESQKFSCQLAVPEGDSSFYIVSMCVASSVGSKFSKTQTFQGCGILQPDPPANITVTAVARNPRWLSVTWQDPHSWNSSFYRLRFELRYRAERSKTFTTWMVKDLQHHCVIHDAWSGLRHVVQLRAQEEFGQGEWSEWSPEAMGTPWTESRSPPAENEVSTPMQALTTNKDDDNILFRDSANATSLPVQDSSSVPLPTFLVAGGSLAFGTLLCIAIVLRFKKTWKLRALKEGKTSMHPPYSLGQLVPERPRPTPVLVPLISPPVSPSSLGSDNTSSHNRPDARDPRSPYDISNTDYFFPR

[11] = mice, 0.3-80 mg/kg i.p. 60 minutes before LPS (Ribeiro et al. 2012)

Compound: C=C(C)[C@@H]1CCC(C)=C[C@H]1c1c(O)cc(CCCCC)cc1O [CBD, 2-[(1R,6R)-3-methyl-6-(1-methylethenyl)-2-cyclohexen-1-yl]-5-pentyl-1,3-benzenediol]
- logP [1]: ~6.1
- target peak exposure [2]: 2,300 ng/ml
- resulting concentration (5 µM converted with molecular weight 314.5 g/mol) (IL-6 secretion [3]): 1,570 ng/ml
- maximum plasma concentration [4]: 14,000 ng/ml
- effective concentration for suppressive effect on IL-6 secretion (IL-6 secretion [5]): ~5 µM
- number of leukocytes including macrophages and neutrophils in the bronchoalveolar lavage fluid ([6]; mice, 20 mg/kg, after LPS-induced lung inflammation): decreases
- Total leukocytes migration [6, 11]: significantly decreased
- myeloperoxidase activity [6, 11]: significantly decreased
- pro-inflammatory cytokine production including TNF-a and IL-6 [6, 11]: significantly decreased
- vascular permeability [6, 11]: significantly decreased
- dose at which effects reached a nearly maximum extent ([6]; prophylactic application, i.p.): 20 mg/kg
- mechanical lung function ([7]; 6 h after LPS (Ribeiro et al. 2014)): improved
- leukocyte migration (neutrophil, macrophages and lymphocytes) into the lungs ([7]; 6 h after LPS): decreased
- myeloperoxidase activity in the lung tissue ([7]; 6 h after LPS): decreased
- production of proinflammatory cytokines/chemokines ([7]; 6 h after LPS): reduced
- vascular permeability ([7]; 6 h after LPS): reduced
- release of pro-inflammatory cytokines (human mononuclear cells): suppressed
- migration of human neutrophils (human neutrophils): inhibits
- CD83 dendritic cell activation marker (CD83): suppresses
- apoptosis in microglial cells (microglial cells): induces apoptosis
- expression of MDSCs ([8]; 25 mg/kg (Hegde et al. 2011)): induces the expression of MDSCs
- pro-inflammatory cytokines such as IL-2, TNF-α and IL-6 ([8]; 25 mg/kg): reduction
- IL-6 production and secretion [9]: decreased
- production of IL-10 [9]: increased
- autoantigen-specific Th17 cell phenotype (Th17 signature cytokine IL-17) ([9]; dose-dependently): reduces
- kidney protection ([10]; 10 mg/kg after induced kidney injury (Baban et al. 2018)): renoprotective
- decreased Treg17 and increased Th17 levels ([10]; 10 mg/kg after induced kidney injury): reversed these effects
- circulating IL-6 (inflammatory processes; animal models including diabetes, asthma, pancreatitis and hepatitis (Nichols and Kaplan 2020)): suppress
- regulatory T cells (Tregs) (inflammatory processes; several disease models (Nichols and Kaplan 2020)): induce regulatory T cells (Tregs)
- numbers of natural killer (NK) cells and natural killer T (NKT) cells (NK, NKT, T and B cells; 2.5 mg/kg per day): increased
- numbers of natural killer (NK) cells and natural killer T (NKT) cells (NK, NKT, T and B cells; 5 mg/kg per day): not affected
- number of B cells (NK, NKT, T and B cells; daily 5 mg/kg): significantly reduced
- number of T cells including T helper cells and cytotoxic T cells (NK, NKT, T and B cells; daily 5 mg/kg): significantly reduced

Compound: tocilizumab: a humanized anti-IL-6 receptor antibody
- efficacy (IL-6 receptor): verified its efficacy
- safety (IL-6 receptor): tolerable safety
